Experiment [1] deals with ob/ob mice. Briefly: Serum ALT and AST in ob/ob mice (animal model for NASH). Particulars: for ALT ± SD / AST ± SD: male ob/ob mice, 100 mg/kg daily oral doses for two weeks, serum. It counts as in vivo. As for the experimental part:
(§1) Male ob/ob mice were divided into four treatment groups comprising six mice each, and given daily oral doses of Vehicle (1% hydroxypropylmethylcellulose) or 100 mg/kg Compound CT, Compound CV, or Compound BI (a positive control) for two weeks. Blood samples were collected form the retro-orbital sinus and processed for serum chemistry measurements.
Obese ob/ob mice develop chronic inflammatory fatty liver disease and are considered to be an animal model for nonalcoholic steatohepatitis (NASH), a condition which can lead toward progressive cirrhosis and liver dysfunction. In NASH, fat accumulation increases the susceptibility of the liver to inflammatory injury. One characteristic sign of NASH in patients is, in the absence of viral infection or alcoholism, elevated levels in serum of enzymes that are released from damaged hepatocytes, e.g. alanine aminotransferase (ALT) and Aspartate-aminotransferase (AST). These enzymes are elevated in ob/ob mice as a consequence of fatty liver and secondary inflammation. In Table 3, ALT and AST in serum samples from mice treated with Compound CT, Compound CV, and Compound BI are shown, as are enzyme levels in serum from control ob/ob mice treated only with vehicle. Treatment with Compound CT, Compound CV, and Compound BI reduced serum ALT and AST versus vehicle-treated ob/ob mice.

Experiment [2] deals with ob/ob mice. Briefly: Serum glucose, triglycerides, free fatty acids and insulin in ob/ob mice. It counts as in vivo. Particulars: male ob/ob mice, 100 mg/kg daily oral doses for two weeks. As for the experimental part: Ob/ob mice have a defect in the gene for leptin, a protein involved in appetite regulation and energy metabolism, and are hyperphagic, obese, and insulin resistant. They develop hyperglycemia and fatty liver.
as §1

From US8022249B2, “Compounds for the treatment of metabolic disorders” (Wellstat Therapeutics Corporation, priority 2005, dated 2011) come the findings set out here.

On to `Cc1cccc(C)c1COc1cccc(CC(=O)NCCO)c1` [Compound CV, N-(2-Hydroxyethyl)-2-[3-(2,6-dimethylbenzyloxy)phenyl]acetamide], for which, in the experiment with ob/ob mice [1], the “ALT ± SD” value is on record as 484 ± 65 U/L; the “AST ± SD” value came to 318 ± 48 U/L; the “serum ALT and AST versus vehicle-treated ob/ob mice (in words)” value is given as “reduced”. Moreover, in the experiment on ob/ob mice [2], the “Free Fatty Acids ± SD” value is 1070 ± 60 µM, the “Glucose ± SD” value stood at 164 ± 10 mg/dL, the “Insulin ± SD” value is 5.0 ± 0.7 ng/mL and the “Triglycerides ± SD” value was determined as 73 ± 5 mg/dL.
In the case of `Cc1cccc(C)c1COc1cccc(C(=O)CCC(=O)O)c1` [Compound BI, 4-(3-(2,6-Dimethylbenzyloxy)phenyl)-4-oxobutyric acid, reference compound], in the experiment with ob/ob mice [1], the “ALT ± SD” value worked out at 330 ± 40 U/L; the “AST ± SD” value is 217 ± 24 U/L; the “serum ALT and AST versus vehicle-treated ob/ob mice (in words)” value was “reduced”. Further, in the experiment with ob/ob mice [2], the “Free Fatty Acids ± SD” value stood at 874 ± 74 µM, the “Glucose ± SD” value came to 180 ± 19 mg/dL, the “Insulin ± SD” value came out at 1.1 ± 0.2 ng/mL and the “Triglycerides ± SD” value is reported as 58 ± 2 mg/dL.
With `Cc1cccc(C)c1COc1cccc(CC(=O)NO)c1` [Compound CT, N-Hydroxy-2-[3-(2,6-dimethylbenzyloxy)phenyl]acetamide], in the experiment with ob/ob mice [1], the “ALT ± SD” value is recorded as 230 ± 59 U/L; the “AST ± SD” value stood at 170 ± 23 U/L; the “serum ALT and AST versus vehicle-treated ob/ob mice (in words)” value is “reduced”. In addition, in the experiment with ob/ob mice [2], the “Free Fatty Acids ± SD” value was determined as 894 ± 55 µM, the “Glucose ± SD” value worked out at 131 ± 21 mg/dL, the “Insulin ± SD” value came out at 3.1 ± 0.9 ng/mL and the “Triglycerides ± SD” value was determined as 68 ± 6 mg/dL.
